Measurements as given in patent publication US20240327415A1, “Multicomponent Complexes, Including Salts, Crystalline Forms, and Hydrates and Solvates of ENT1 Inhibitors” (iTeos Belgium SA, priority 2023, published 2024).

Key:
[1] = target: T1, ENT1 (Homo sapiens, UniProt Q99808); assay: ENT1 activity: intracellular uptake of 5-Ethynyl-Uridine (5EU) in whole blood, CD19 positive cells, flow cytometry; format: cell-based; conditions: 5EU 60 min at 37° C.
T1 construct: endogenous in cells; host or cells: CD19-positive cells (B cells) in whole blood from healthy donors
T1 sequence (Q99808 1-456): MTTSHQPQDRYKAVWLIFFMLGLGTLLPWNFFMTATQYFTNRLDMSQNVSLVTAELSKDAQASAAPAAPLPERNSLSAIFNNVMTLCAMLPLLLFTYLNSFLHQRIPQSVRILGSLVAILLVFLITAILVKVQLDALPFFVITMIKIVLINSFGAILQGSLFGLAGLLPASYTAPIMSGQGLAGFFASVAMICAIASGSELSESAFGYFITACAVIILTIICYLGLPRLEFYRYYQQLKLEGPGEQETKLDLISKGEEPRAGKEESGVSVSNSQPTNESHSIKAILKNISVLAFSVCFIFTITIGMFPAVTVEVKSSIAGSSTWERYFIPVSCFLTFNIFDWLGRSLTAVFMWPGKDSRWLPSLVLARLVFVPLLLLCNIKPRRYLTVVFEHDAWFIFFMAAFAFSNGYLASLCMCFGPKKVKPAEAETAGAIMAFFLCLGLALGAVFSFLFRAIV
Experimental: Example 20-ENT1 Activity of Crystalline Form 2 Compound 1 di(hydrogen sulfate) trihydrate compared to Compound 1 (free base)-Initial and after Six-Month Storage: (1) Initial time: Whole blood from 8 healthy donors was incubated with 5-Ethynyl-Uridine (5EU, CAS #: 69075-42-9, Jena Bioscience) for 60 min at 37° C., in the absence or presence of freshly suspended 1 μM Compound 1 (free base) or 1 μM Form 2 Compound 1 di(hydrogen sulfate) trihydrate. Intracellular uptake of 5EU through ENT1 transporters was assessed by standard flow cytometry and ENT1 activity was determined.
In FIG. 101, the data are expressed as % of ENT1 activity in untreated CD19 cells, arbitrary set at 100%, and are the means±SD of three independent experiments. Statistical analysis was performed using one-way analysis of variance (ANOVA) followed by Tukey's post hoc analysis with Prism 10.1.2 software (GraphPad Software). *: p<0.0001 vs. untreated B cells; ns: non-significant.
(2) Six months: Compound stability was evaluated on suspended solutions of Compound 1 (free base) or Form 2 Compound 1 di(hydrogen sulfate) trihydrate that were stored at −20° C. for 6 months. On the day of the experiment, whole blood from 3 healthy donors was incubated with 5-Ethynyl-Uridine (5EU, CAS #: 69075-42-9, Jena Bioscience) for 60 min at 37° C., in the absence or presence of either 1 μM Compound 1 (free base) or 1 μM Form 2 Compound 1 di(hydrogen sulfate) trihydrate of 6-month-old solutions. Intracellular uptake of 5EU through ENT1 transporters was assessed by standard flow cytometry and ENT1 activity was determined.
In FIG. 102, the data are expressed as % of ENT1 activity in untreated CD19 cells, arbitrary set at 100%, and are the means±SD. Statistical analysis was performed using two-way analysis of variance (ANOVA) with Prism 10.1.2 software (GraphPad Software). *: p<0.05 vs. untreated B cells; **: p<0.01 vs. untreated B cells; ns: non-significant.

[2] = pH solubility studies in buffers and biorelevant media (Example 16); format: physicochemical; design: key: M4: Crystalline Form 4 mono(hydrogen sulfate); Crystalline Form 2 di(hydrogen sulfate) trihydrate; Amorphous; conditions: pH 6.8 (Phosphate), 24 h
Experimental: Example 16—pH Solubility Studies—(1) Crystalline Form 2 Compound 1 di(hydrogen sulfate) trihydrate, (2) Crystalline Form 3 Compound 1 di(hydrogen sulfate), and (3) Crystalline Form 4 Compound 1 mono(hydrogen sulfate): pH solubility studies were carried out on the prepared crystalline Form 2 Compound 1 di(hydrogen sulfate) trihydrate, crystalline Form 3 Compound 1 di(hydrogen sulfate) and crystalline Form 4 Compound 1 mono(hydrogen sulfate) in the following media: (1) HCl/KCl, pH 1.2; (2) Acetate, pH 4.5; (3) Phosphate, pH 6.8; (4) FaSSIF; (5) FeSSIF; and (6) FaSSGF. Slurries of the hydrogen sulfate forms were prepared in the appropriate medium and stirred at 25° C. For the experiments in the buffer media, the pH of the slurry samples was measured and adjusted as required after 1 hour and 23 hours of the slurrying. Additional solid was added where dissolution was observed post-adjustment. The pH of the samples in the biorelevant media was measured at the 23 hour timepoint. No pH adjustment was made for the biorelevant media. After a total of 24 hours of slurrying, the mother liquors were extracted via centrifugation, and the concentrations and solution purity were determined by HPLC. The residual solids were isolated and analyzed by XRPD and are shown in FIG. 77, FIG. 78, and FIG. 79. The assessment was repeated for some of the samples, where required.

[3] = Variable Temperature X-Ray Powder Diffraction (VT-XRPD); format: physicochemical; design: key: M4: Crystalline Form 4 mono(hydrogen sulfate); M8: Crystalline Form 8 mono(hydrogen sulfate); Amorphous mono(hydrogen sulfate)
Experimental: (§1) In the examples below, VT-XRPD analysis was carried out on a Philips X'Pert Pro Multipurpose diffractometer equipped with a temperature chamber. The samples were scanned between 4 and 36° 2θ using Cu K radiation (α1 λ=1.54060 Å; α2=1.54443 Å; β=1.39225 Å; α1: α2 ratio=0.5; most, if not all, B radiation is removed from the beam using an X-ray mirror) running in Bragg-Brentano geometry (step size 0.008° 2θ) using 40 kV/40 mA generator settings. Measurements were carried out from ambient temperature to an upper limit of 250° C., with a final measurement taken after cooling.
as §1, with “VT-XRPD” for “In the examples below, VT-XRPD”, “Å; β2=1.39225” for “Å; β=1.39225”, “Å; α1:α2” for “Å; α1: α2”, “all, β” for “all, B”

| decrease of ENT1 activity compared to untreated CD19 positive cells ([1]; 1 μM of solutions stored at −20° C. for 6 months, whole blood from 3 healthy donors) | decrease of ENT1 activity compared to untreated CD19 positive cells ([1]; 1 μM, freshly suspended, whole blood from 8 healthy donors) | XRPD of residual solids ([2]; attempt 1, 25° C.) | XRPD of residual solids ([2]; attempt 2, 25° C.) | Compound | VT-XRPD Results ([3]; Cooling, 30° C., hold 10 min) | VT-XRPD Results ([3]; Heating, 40° C., hold 60 min) | VT-XRPD Results ([3]; Heating, 50° C., hold 60 min) | VT-XRPD Results ([3]; Heating, 70° C., hold 60 min) | VT-XRPD Results ([3]; second Heating, 50° C., hold 60 min) | VT-XRPD Results ([3]; second Heating, 70° C., hold 60 min) | VT-XRPD Results ([3]; second Heating, 90° C., hold 60 min) | VT-XRPD Results ([3]; second Heating, 100° C., hold 60 min) | VT-XRPD Results ([3]; second Heating, 110° C., hold 60 min) |
| --- | --- | --- | --- | --- | --- | --- | --- | --- | --- | --- | --- | --- | --- |
| 30.4% | 43.9% | A | A | CCCN1CCNCCCNC(=O)c2cc(OC)c(OC)c(c2)OCCC[C@@H](OC(=O)c2cc(OC)c(OC)c(OC)c2)CC1 |  |  |  |  |  |  |  |  |  |
|  |  |  |  | COc1cc(C(=O)O[C@@H]2CCCOc3cc(cc(OC)c3OC)C(=O)NCCCN3CCCN(CC2)CC3)cc(OC)c1OC.O=S(=O)(O)O | M8 | M8 | M8 | M8 | M8 | M8 | Amorphous | Amorphous | Amorphous |
